Data on 20 compounds can be found in patent US20050282818A1, “Ubiquitin ligase inhibitors” (Rigel Pharmaceuticals, Inc., priority 2004, published 2005).

One experiment deals with T1, TRAF6/Uev1A/Ubc13 (Homo sapiens, UniProt Q9Y4K3).
T1 sequence (Q9Y4K3 1-522): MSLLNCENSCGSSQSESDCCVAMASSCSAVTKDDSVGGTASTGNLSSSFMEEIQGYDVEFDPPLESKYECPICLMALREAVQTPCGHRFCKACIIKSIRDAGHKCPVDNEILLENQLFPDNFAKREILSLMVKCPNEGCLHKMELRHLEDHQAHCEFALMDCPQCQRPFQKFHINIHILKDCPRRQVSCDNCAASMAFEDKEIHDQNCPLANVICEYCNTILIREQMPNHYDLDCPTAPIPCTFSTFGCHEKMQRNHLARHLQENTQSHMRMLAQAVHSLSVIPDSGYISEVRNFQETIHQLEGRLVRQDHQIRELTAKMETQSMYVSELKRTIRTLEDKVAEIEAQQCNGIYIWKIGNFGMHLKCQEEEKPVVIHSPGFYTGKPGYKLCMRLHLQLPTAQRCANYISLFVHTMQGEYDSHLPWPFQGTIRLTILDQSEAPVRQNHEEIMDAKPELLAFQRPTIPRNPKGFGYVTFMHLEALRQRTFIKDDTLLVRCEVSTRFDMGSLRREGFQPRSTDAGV
Briefly: TRAF6/Uev1A/Ubc13 plate-based ubiquitin ligase assay. It counts as biochemical. The procedure:
For the assays described below, the TRAF6/Uev1A/UBC13 assay is the biochemical plate-based assay of TRAF6 ligase activity using Ubc13 as the E2 enzyme. The gel-based assay is the biochemical solution-based TRAF6 ligase assay (by SDS-PAGE and Western blot) to confirm the plate-based ELISA assay. The APC assay is an assay which is another E3 ligase (APC2/APC11) biochemical assay.
A 96-well Ni-plate was blocked with 100 μl of 1% casein in PBS for 1 hour at room temperature. The plates were then washed three times with 200 μl of 1×PBS and 80 μl of a reaction buffer was added per well which contained 50 ng of Flag-ubiquitin, 50 ng of His-ubiquitin, 62.5 mM Tris pH 7.5, 6.25 mM MgCl2, 1.0 mM DTT, and 2 μM ATP. To each well was added 10 μl of a solution of the compound in DMSO. The reaction was started by adding 10 μl of a solution consisting of 10 ng human E1, 25 ng each of Uev1a and Ubc13, and 100 ng TRAF6 in the reaction buffer. The plates were shaken for 10 minutes and incubate at room temperature for 1 hour. After the incubation, the plates were washed three times with 200 μl 1×PBS in 0.05% Tween and 100 μl of an antibody mix consisting of anti-Flag (1:30,000 dilution; Sigma F-3165) and anti-Mouse IgG-HRP (1/150,000 dilution; Jackson Immunoresearch #115-035-146) in 1×PBS with 0.25% BSA. The plates were then incubated for another 1 hour at room temperature, and after incubation the plate was washed three times with 200 μl 1×PBS with 0.05% Tween. The amount of ubiquitin was measured by adding 100 μl of Lumino substrate (1:5 dilution) and reading the luminescence with a fluorimeter.
Table 2 below illustrates the inhibitory activity of the compounds of the invention determined by the TRAF6/Uev1A/Ubc13 assay as well as in the ICAM, APC and the ROC1/CUL1 Ubiquitin Ligase Assay (SCF Assay). The IC50 values were determined using a various concentrations of the compounds.

The next experiment relates to A549 cells. As to the kind of experiment: Cell proliferation PAD assay, A549. It counts as cell-based. The note with it: Homo sapiens, 48 hours. On the procedure:
(§1) Cell lines used are available from American Type Culture Collection (ATCC), for example, cell cultures containing A549 (ATCC# CCL-185), HeLa (ATCC# CCL-2), HCT116 ATTC# CCL-247), and H1299 (ATCC# CRL-5803) cells were maintained in T175 flasks following the ATCC recommended media and handling procedures. […] A 20,000 cells/ml solution was made for plating. Cells were plated in black Packard 96 well plates by placing 100 μl per well (2,000 cells per well). […] The definitions of the cell types used are as follows: A549 is lung carcinoma; HI 299 is non-small cell lung carcinoma; HI 155 is non-small cell lung carcinoma; AsPC-1 is pancreatic adenocarcinoma; Caov-3 is ovarian adenocarcinoma; COLO 205 is colorectal adenocarcinoma; DLD-1 colorectal adenocarcinoma; HCT116 is colorectal carcinoma; DU 145 is prostate carcinoma; ES-2 is ovarian clear cell carcinoma; H460 is large cell lung carcinoma; HELA is cervical adenocarcinoma; MIA PaCa-2 is pancreatice carcinoma; OVCAR-3 is ovarian adenocarcinoma; OVCAR8 is ovarian carcinoma; PC3 is prostate adenocarcinoma; SK-OV-3 is ovarian adenocarcinoma; SU86.86 is pancreatic carcinoma; TOV-21G is avarian clear cell carcinoma; U2OS is bone osteosarcoma; is ASPC-I is pancreatic adenocarcinoma; BXPC-3 is pabcreatic adenocarcinoma; HL60 is promyeloblast promyelocytic leukemia; K562 is bone marrow chronic myelogenous leukemia; L1210 is mouse lymphocytic leukemia; MOLT3 is T lymphoblast acute lymphoblastic leukemia; MOLT4 is T lymphoblast acute lymphoblastic leukemia; SW620 is colorectal adenocarcinoma; THP-1 is monocyte acute monocytic leukemia; U937 is histiocytic lymphoma; and UACC-257 is melanoma.
(§2) Compounds and additional media were added 24 hours after cell plating. […] All compound testing was done in duplicate using 6.3 fold dilutions starting with 10 mM. […] Taxol and at least one additional control were run on all plates. Three microliters of the compound master plate were added to deep well blocks containing 750 μl of RPMI media. One hundred microliters were transferred from the compound/media deep well blocks to the plated cells resulting in a 500 fold dilution of the compounds. Cells were grown at 37° C., 5% CO2 for 48 hours.
(§3) Cells to be analyzed by photography were fixed and stained. One hundred microliters of media were removed and 100 μl of 9.3% formamide was added to each well. Plates were left on the benchtop for 45 minutes. A staining solution containing 1.55 μl of 1 mg/ml DAPI added to 18.75 ml PBS was warmed for 15 minutes at 37° C. The cells were aspirated prior to washing with 100 μl of PBS. Seventy microliters of PBS were aspirated and 170 μl of the DAPI solution were added to each well of fixed cells. Plates were left at room temperature for one hour then aspirated and washed twice with 100 μl of PBS. The stained cells were left at 4° C. for a minimum of 16 hours before photographic analysis with Array Scan II (Cellomics). Analysis of the photographic images to determine numbers of live cells (proliferation), apoptotic cells and dead cells, were according to the methods described in U.S. Utility patent application Ser. No. 10/652,440, which incorporated herein in its entirety.

The subject of a further experiment is H1299 cells. Briefly: Cell proliferation PAD assay, H1299. It counts as cell-based. The note with it: Homo sapiens, 48 hours. On the procedure:
as §1, §2, §3

The mark [1] stands for this setting: NCI-H1299, 3pt, read-out: H1299 3pt.
[2] abbreviates: NCI-H1299, 6pt, read-out: H1299 6pt.

Where two headings read alike, the source gives them in different places. Some results are limits rather than exact numbers.

Turning to `O=S(=O)(c1ccc(Cl)c2nonc12)N1CCC(Oc2ccccc2C(F)(F)F)CC1` [compound 230, 4-chloro-7-({4-[2-(trifluoromethyl)phenoxy]piperidin-1-yl}sulfonyl)-2,1,3-benzoxadiazole], the IC50 against TRAF6/Uev1A/Ubc13 was 1 to 20 µM; in the experiment with A549 cells (3pt, read-out: A549 3pt) it was 1 to 20 µM; with H1299 cells (setting [1]) it was 1 to 20 µM.
Consider `O=S(=O)(Nc1ccc(Oc2ccc(Cl)cc2)cc1)c1cccc2nonc12` [compound 104, N-[4-(4-chlorophenoxy)phenyl]-2,1,3-benzoxadiazole-4-sulfonamide], for which the IC50 against TRAF6/Uev1A/Ubc13 is not below 20 µM; with A549 cells (3pt, read-out: A549 3pt), not below 20 µM; with H1299 cells (setting [1]), not below 20 µM.
Turning to `CC(=O)C1(c2ccccc2)CCN(c2ccc([N+](=O)[O-])c3nonc23)CC1` [compound 231, 1-[1-(7-nitro-2,1,3-benzoxadiazol-4-yl)-4-phenylpiperidin-4-yl]ethanone], the IC50 at TRAF6/Uev1A/Ubc13 was 1 to 20 µM; in the experiment with A549 cells (3pt, read-out: A549 3pt) it was not below 20 µM; with H1299 cells (setting [1]) it was 1 to 20 µM.
On to `Nc1ccc2cnn(S(=O)(=O)c3ccc(Cl)c4nonc34)c2c1` [compound 221, 1-[(7-chloro-2,1,3-benzoxadiazol-4-yl)sulfonyl]-1H-indazol-6-amine], for which the IC50 was not below 20 µM against TRAF6/Uev1A/Ubc13; not below 20 µM in the experiment with A549 cells (3pt, read-out: A549 3pt); not below 20 µM with H1299 cells (setting [1]).
Consider `CN1CCN(S(=O)(=O)c2ccc(Sc3cccc4cccnc34)c3nonc23)CC1` [compound 191, 8-({7-[(4-methylpiperazin-1-yl)sulfonyl]-2,1,3-benzoxadiazol-4-yl}thio)quinoline], for which the IC50 against TRAF6/Uev1A/Ubc13 was not below 20 µM; in the experiment with A549 cells (3pt, read-out: A549 3pt), 1 to 20 µM; with H1299 cells (setting [1]) it was 1 to 20 µM.
For `O=S(=O)(Nc1cc(Cl)ccc1Cl)c1cccc2nonc12` [compound 60, N-(2,5-dichlorophenyl)-2,1,3-benzoxadiazole-4-sulfonamide], the IC50 was not below 20 µM with A549 cells (3pt, read-out: A549 3pt) and not below 20 µM in the experiment on H1299 cells (setting [1]).
On to `O=S(=O)(Nc1cc(Cl)cc(Cl)c1)c1cccc2nonc12` [compound 52, N-(3,5-dichlorophenyl)-2,1,3-benzoxadiazole-4-sulfonamide], for which the IC50 in the experiment with A549 cells (3pt, read-out: A549 3pt) was not below 20 µM; in the experiment with H1299 cells (setting [1]), not below 20 µM.
Consider `COC(=O)c1ccc(C(=O)OC)c(NS(=O)(=O)c2cccc3nonc23)c1` [compound 63, dimethyl 2-[(2,1,3-benzoxadiazol-4-ylsulfonyl)amino]terephthalate], for which the IC50 with A549 cells (3pt, read-out: A549 3pt) was not below 20 µM; in the experiment with H1299 cells (setting [1]) it was not below 20 µM.
For the compound `N#Cc1ccc(N2CCN(S(=O)(=O)c3cccc4nonc34)CC2)nc1` [compound 120, 6-[4-(2,1,3-benzoxadiazol-4-ylsulfonyl)piperazin-1-yl]nicotinonitrile], the IC50 was not below 20 µM in the experiment on A549 cells (3pt, read-out: A549 3pt) and not below 20 µM with H1299 cells (setting [1]).
Take `Cc1cc(C)cc(-c2cc(-c3cc(C)cc(C)c3)c3nonc3c2)c1` [compound 323, 4,6-bis[3,5-(dimethyl)phenyl]-2,1,3-benzoxadiazole]: the IC50 in the experiment with A549 cells (6pt, read-out: A549 6pt) is not below 20 µM; in the experiment on H1299 cells (setting [2]), not below 20 µM.
Turning to `O=S(=O)(Nc1cccc2nsnc12)c1cc(Cl)c(O)c(Cl)c1` [compound 96, N-2,1,3-benzothiadiazol-4-yl-3,5-dichloro-4-hydroxybenzenesulfonamide], the IC50 with A549 cells (3pt, read-out: A549 3pt) is not below 20 µM; with H1299 cells (setting [1]), not below 20 µM.
For `O=S(=O)(Nc1ccccn1)c1cccc2nonc12` [compound 58, N-pyridin-2-yl-2,1,3-benzoxadiazole-4-sulfonamide], the IC50 in the experiment on A549 cells (3pt, read-out: A549 3pt) was not below 20 µM; in the experiment on H1299 cells (setting [1]) it was not below 20 µM.
In the case of `O=S(=O)(Nc1ccc(N2CCOCC2)c(Cl)c1)c1cccc2nonc12` [compound 66, N-(3-chloro-4-morpholin-4-ylphenyl)-2,1,3-benzoxadiazole-4-sulfonamide], the IC50 with A549 cells (3pt, read-out: A549 3pt) is not below 20 µM; in the experiment on H1299 cells (setting [1]), not below 20 µM.
Regarding `CCOC(=O)c1cccc(NS(=O)(=O)c2cccc3nonc23)c1` [compound 74, ethyl 3-[(2,1,3-benzoxadiazol-4-ylsulfonyl)amino]benzoate], the IC50 was not below 20 µM in the experiment on A549 cells (3pt, read-out: A549 3pt) and not below 20 µM in the experiment with H1299 cells (setting [1]).
Take `O=S(=O)(Nc1cccc2nsnc12)c1cccc(Br)c1` [compound 97, N-2,1,3-benzothiadiazol-4-yl-3-bromoberizenesulfonamide]: the IC50 in the experiment on A549 cells (3pt, read-out: A549 3pt) was not below 20 µM; in the experiment with H1299 cells (setting [1]), not below 20 µM.
Consider `O=S(=O)(c1cccc2nonc12)N1CCN(c2ccncc2)CC1` [compound 126, 4-[(4-pyridin-4-ylpiperazin-1-yl)sulfonyl]-2,1,3-benzoxadiazole], for which the IC50 in the experiment on A549 cells (3pt, read-out: A549 3pt) was not below 20 µM; in the experiment with H1299 cells (setting [1]), not below 20 µM.
In the case of `COc1cccc(-c2cc(Cl)c3nonc3c2)c1` [compound 328, 4-Chloro-6-(3-methoxyphenyl)-2,1,3-benzoxadiazole], the IC50 was not below 20 µM in the experiment on A549 cells (6pt, read-out: A549 6pt) and not below 20 µM in the experiment with H1299 cells (setting [2]).
On to `O=S(=O)(NCCF)c1cccc2nonc12` [compound 59, N-(2-fluoroethyl)-2,1,3-benzoxadiazole-4-sulfonamide], for which the IC50 was not below 20 µM in the experiment with A549 cells (3pt, read-out: A549 3pt) and not below 20 µM in the experiment with H1299 cells (setting [1]).
For `O=S(=O)(c1cccc2nonc12)N1CCN(c2ccccn2)CC1` [compound 123, 4-[(4-Pyridin-2-ylpiperazin-1-yl)-sulfonyl]-2,1,3-benzoxadiazole], the IC50 with A549 cells (3pt, read-out: A549 3pt) is not below 20 µM; with H1299 cells (setting [1]) it was not below 20 µM.
Consider `O=S(=O)(NCc1ccccn1)c1cccc2nonc12` [compound 49, N-(pyridin-2-ylmethyl)-2,1,3-benzoxadiazole-4-sulfonamide], for which the IC50 was not below 20 µM with A549 cells (3pt, read-out: A549 3pt) and not below 20 µM in the experiment on H1299 cells (setting [1]).
